How the values were obtained:
BRD4-1 = BRD4-1 (Homo sapiens (Human), UniProt O60885); assay: Bromodomain and Extraterminal Domain (BET) binding assay, BRD4-1; settings: histone H4 peptide (1-21) K5/8/12/16Ac-biotin ligand; 20 nM protein, 20 nM ligand
Procedure: (§1) The bromodomain binding assays were performed by Reaction Biology Corp., Malvern, Pa., USA (www.reactionbiology.com). The BET binding assays were conducted in 384 well microplates in assay buffer (50 mM HEPES-HCl, pH 7.5, 100 mM NaCl, 1 mg/ml BSA, 0.05% CHAPS, and 0.5% DMSO) with compounds added as DMSO stocks at a single concentration or with 10-point dose response titrations. BET protein or assay buffer were delivered to the appropriate wells of the microplate. Test compound was then delivered by acoustic technology via a Labcyte Echo550 liquid handler. The microplate was centrifuged for 5 min and pre-incubated for 30 min at RT with gentle shaking. The ligand (histone H4 peptide (1-21) K5/8/12/16Ac-biotin) was delivered and the microplate was again centrifuged for 5 min and allowed to incubate for 30 min at RT with gentle shaking. Donor beads were then added in the absence of light and the microplate was centrifuged and gently shaken. After 5 min, acceptor beads were added in the absence of light and the microplate was centrifuged and gently shaken in the dark for 60 min. The microplate was read using a Perkin Elmer EnSpire Alpha plate reader (λ Ex/λ Em=680/520-620 nm). Percent inhibition was calculated relative to positive and negative controls on a per plate basis. For titration experiments, IC50 values were determined by fitting the percent inhibition versus compound concentration.

BRD4-2 = BRD4-2 (Homo sapiens (Human), UniProt O60885); assay: Bromodomain and Extraterminal Domain (BET) binding assay, BRD4-2; settings: histone H4 peptide (1-21) K5/8/12/16Ac-biotin ligand; 130 nM protein, 70 nM ligand
Procedure: as §1

[1] = tested on: MV-4-11 human acute myeloid leukemia cell line; assay: Cell viability assay in MV-4-11 cells (Cell Titer-Glo); assay type: cell-based; settings: MV4-11, 72 hrs incubation
Procedure: The effects of test compounds were studied in a cell viability assay in the MV-4-11 human acute myeloid leukemia cell line. The cells were harvested during the logarithmic growth period and counted. Cells were seeded at a count of 15000 cells per well/100 μl. After seeding, cells were incubated at 37° C. 5% CO2 for 1 hr. Cells were treated with test compounds at 8 concentrations within a desired concentration range (e.g. 5 nM-10 μM) for generation of dose response curves by preparing serial dilutions of the test compound in DMSO which were further diluted with culture medium and then added to each well. The plate was further incubated for another 72 hrs in a humidified incubator at 37° C. and 5% CO2. The assay was terminated by addition of Cell Titer-Glo reagent (Promega, Madison, Wis.) at ¼ the volume of total medium per well. Contents were mixed, the plate was incubated for 10 min at room temperature and luminescence was measured. Cell viability data were plotted using GraphPad Prism (GraphPad Software, Inc., San Diego, Calif.). In addition, a nonlinear regression model with a sigmoidal dose response and variable slope within GraphPad Prism was used to calculate the IC50 value of individual test compounds.

## Cc1cc(F)cc(C)c1Oc1ccc(C(C)(C)O)cc1-c1cn(C)c(=O)c2ccsc12 [Compound 2.1, 7-(2-(4-fluoro-2,6-dimethylphenoxy)-5-(2-hydroxypropan-2-yl)phenyl)-5-methylthieno[3,2-c]pyridin-4(5H)-one]
BRD4-1
  IC50: 2500 nM
BRD4-2
  IC50: 19.8 nM
[1]
  IC50: 0.47 µM

## Cn1cc(-c2cc(C(C)(C)O)ccc2Oc2ccc(F)cc2F)c2sccc2c1=O [Compound 2.3, 7-(2-(2,4-difluorophenoxy)-5-(2-hydroxypropan-2-yl)phenyl)-5-methylthieno[3,2-c]pyridin-4(5H)-one]
BRD4-1
  IC50: 118 nM
BRD4-2
  IC50: 28.5 nM
[1]
  IC50: 0.163 µM

## CCS(=O)(=O)Nc1ccc(Oc2ccc(F)cc2F)c(-c2cn(C)c(=O)c3ccsc23)c1 [Compound 2.91, N-(4-(2,4-difluorophenoxy)-3-(5-methyl-4-oxo-4,5-dihydrothieno [3,2-c]pyridin-7-yl)phenyl)ethanesulfonamide]
BRD4-1
  IC50: 15 nM
BRD4-2
  IC50: 7.3 nM

## Cn1cc(-c2cc(C(C)(C)O)ccc2Oc2ccc(F)cc2F)c2cc(C(=O)NCC(F)(F)F)sc2c1=O [Compound 5, 4-(2-(2,4-difluorophenoxy)-5-(2-hydroxypropan-2-yl)phenyl)-6-methyl-7-oxo-N-(2,2,2-trifluoroethyl)-6,7-dihydrothieno[2,3-c]pyridine-2-carboxamide]
BRD4-1
  IC50: 744 nM
BRD4-2
  IC50: 18 nM
[1]
  IC50: 0.597 µM

## Cn1cc(-c2cc(C(C)(C)O)ccc2Oc2ccc(F)cc2F)c2cc(C(=O)N3CCCCC3)sc2c1=O [Compound 6, 4-(2-(2,4-difluorophenoxy)-5-(2-hydroxypropan-2-yl)phenyl)-6-methyl-2-(piperidine-1-carbonyl)thieno[2,3-c]pyridin-7(6H)-one]
BRD4-1
  IC50: 1480 nM
BRD4-2
  IC50: 32 nM
[1]
  IC50: 1.79 µM

## Cn1cc(-c2cc(C(C)(C)O)ccc2Oc2ccc(F)cc2F)c2cc(CN3CCCCC3)sc2c1=O [Compound 7, 4-(2-(2,4-difluorophenoxy)-5-(2-hydroxypropan-2-yl)phenyl)-6-methyl-2-(piperidin-1-ylmethyl)thieno[2,3-c]pyridin-7(6H)-one]
BRD4-2
  IC50: 497 nM
[1]
  IC50: 2.48 µM

## Cc1nnc(-c2cc3c(-c4cc(C(C)(C)O)ccc4Oc4ccc(F)cc4F)cn(C)c(=O)c3s2)o1 [Compound 12, 4-(2-(2,4-difluorophenoxy)-5-(2-hydroxypropan-2-yl)phenyl)-6-methyl-2-(5-methyl-1,3,4-oxadiazol-2-yl)thieno[2,3-c]pyridin-7(6H)-one]
BRD4-1
  IC50: 17 nM
BRD4-2
  IC50: 12.5 nM
[1]
  IC50: 0.074 µM

## Cn1cc(-c2cc(C(C)(C)O)ccc2Oc2ccc(F)cc2F)c2cc(C(=O)NC3(C(F)(F)F)CC3)sc2c1=O [Compound 14, 4-(2-(2,4-difluorophenoxy)-5-(2-hydroxypropan-2-yl)phenyl)-6-methyl-7-oxo-N-(1-(trifluoromethyl)cyclopropyl)-6,7-dihydrothieno[2,3-c]pyridine-2-carboxamide]
BRD4-1
  IC50: 1170 nM
BRD4-2
  IC50: 47 nM
[1]
  IC50: 0.768 µM

## Cn1cc(-c2cc(C(C)(C)O)ccc2Oc2ccc(F)cc2F)c2cc(C(=O)N3CCC(F)(F)CC3)sc2c1=O [Compound 22, 4-(2-(2,4-difluorophenoxy)-5-(2-hydroxypropan-2-yl)phenyl)-2-(4,4-difluoropiperidine-1-carbonyl)-6-methylthieno[2,3-c]pyridin-7(6H)-one]
BRD4-1
  IC50: 638 nM
BRD4-2
  IC50: 11 nM
[1]
  IC50: 1.41 µM

## Cn1cc(-c2cc(C(C)(C)O)ccc2Oc2ccc(F)cc2F)c2cc(C(=O)N3CCC(F)(F)C3)sc2c1=O [Compound 76, 4-(2-(2,4-difluorophenoxy)-5-(2-hydroxypropan-2-yl)phenyl)-2-(3,3-difluoropyrrolidin-1-carbonyl)-6-methylthieno[2,3-c]pyridin-7(6H)-one]
BRD4-1
  IC50: 265 nM
BRD4-2
  IC50: 17 nM
[1]
  IC50: 0.879 µM

## C=C(C)c1ccc(Oc2c(C)cc(F)cc2C)c(-c2cn(C)c(=O)c3sc(C(=O)NCC)cc23)c1 [Compound 148, N-ethyl-4-(2-(4-fluoro-2,6-dimethylphenoxy)-5-(prop-1-en-2-yl)phenyl)-6-methyl-7-oxo-6,7-dihydrothieno[2,3-c]pyridine-2-carboxamide]
BRD4-1
  IC50: > 10000 nM
BRD4-2
  IC50: 103 nM
[1]
  IC50: 1.28 µM

## Cc1cc(F)cc(C)c1Oc1ccc(C(C)(C)O)cc1-c1cn(C)c(=O)c2sc(C(=O)NCc3ccccc3)cc12 [Compound 149, N-benzyl-4-(2-(4-fluoro-2,6-dimethylphenoxy)-5-(2-hydroxypropan-2-yl)phenyl)-6-methyl-7-oxo-6,7-dihydrothieno[2,3-c]pyridine-2-carboxamide]
BRD4-1
  IC50: > 10000 nM
BRD4-2
  IC50: 103 nM
[1]
  IC50: 1.5 µM

## CNC(=O)c1cc2c(-c3cc(C(C)(C)O)ccc3Oc3c(C)cc(F)cc3C)cn(C)c(=O)c2s1 [Compound 150, 4-(2-(4-fluoro-2,6-dimethylphenoxy)-5-(2-hydroxypropan-2-yl)phenyl)-N,6-dimethyl-7-oxo-6,7-dihydrothieno[2,3-c]pyridine-2-carboxamide]
BRD4-1
  IC50: 3600 nM
BRD4-2
  IC50: 1.2 nM
[1]
  IC50: 0.193 µM

## Cc1cc(F)cc(C)c1Oc1ccc(C(C)(C)O)cc1-c1cn(C)c(=O)c2sc(C(=O)Nc3ccccc3)cc12 [Compound 151, 4-(2-(4-fluoro-2,6-dimethylphenoxy)-5-(2-hydroxypropan-2-yl)phenyl)-6-methyl-7-oxo-N-phenyl-6,7-dihydrothieno[2,3-c]pyridine-2-carboxamide]
BRD4-1
  IC50: 9380 nM
BRD4-2
  IC50: 3.2 nM
[1]
  IC50: 0.282 µM

## Cc1nnc(-c2cc3c(-c4cc(C(C)(C)O)ccc4Oc4c(C)cc(F)cc4C)cn(C)c(=O)c3s2)[nH]1 [Compound 152, 4-(2-(4-fluoro-2,6-dimethylphenoxy)-5-(2-hydroxypropan-2-yl)phenyl)-6-methyl-2-(5-methyl-4H-1,2,4-triazol-3-yl)thieno[2,3-c]pyridin-7(6H)-one]
BRD4-1
  IC50: 1490 nM
BRD4-2
  IC50: 9 nM
[1]
  IC50: 0.536 µM

## Cc1cc(F)cc(C)c1Oc1ccc(C(C)(C)O)cc1-c1cn(C)c(=O)c2sc(-c3nc4ccccc4o3)cc12 [Compound 153, 2-(benzo[d]oxazol-2-yl)-4-(2-(4-fluoro-2,6-dimethylphenoxy)-5-(2-hydroxypropan-2-yl)phenyl)-6-methylthieno[2,3-c]pyridin-7(6H)-one]
BRD4-1
  IC50: > 10000 nM
BRD4-2
  IC50: 526 nM
[1]
  IC50: 3.83 µM

## Cc1cc(F)cc(C)c1Oc1ccc(C(C)(C)O)cc1-c1cn(C)c(=O)c2sc(-c3nc4ccccc4[nH]3)cc12 [Compound 154, 2-(1H-benzo[d]imidazol-2-yl)-4-(2-(4-fluoro-2,6-dimethylphenoxy)-5-(2-hydroxypropan-2-yl)phenyl)-6-methylthieno[2,3-c]pyridin-7(6H)-one]
BRD4-1
  IC50: > 10000 nM
BRD4-2
  IC50: 284 nM
[1]
  IC50: 2.89 µM

## CCN(CC)C(=O)c1cc2c(-c3cc(C(C)(C)O)ccc3Oc3c(C)cc(F)cc3C)cn(C)c(=O)c2s1 [Compound 155, N,N-diethyl-4-(2-(4-fluoro-2,6-dimethylphenoxy)-5-(2-hydroxypropan-2-yl)phenyl)-6-methyl-7-oxo-6,7-dihydrothieno[2,3-c]pyridine-2-carboxamide]
BRD4-1
  IC50: > 10000 nM
BRD4-2
  IC50: 4070 nM

## C=C(C)c1ccc(Oc2c(C)cc(F)cc2C)c(-c2cn(C)c(=O)c3cc(C(=O)NCC)sc23)c1 [Compound 156, N-ethyl-7-(2-(4-fluoro-2,6-dimethylphenoxy)-5-(prop-1-en-2-yl)phenyl)-5-methyl-4-oxo-4,5-dihydrothieno[3,2-c]pyridine-2-carboxamide]
BRD4-1
  IC50: > 10000 nM
BRD4-2
  IC50: 740 nM

## CCS(=O)(=O)Nc1ccc(Oc2c(C)cc(F)cc2C)c(-c2cn(C)c(=O)c3sc(-c4nc5ccccc5[nH]4)cc23)c1 [Compound 157, N-(3-(2-(1H-benzo[d]imidazol-2-yl)-6-methyl-7-oxo-6,7-dihydrothieno[2,3-c]pyridin-4-yl)-4-(4-fluoro-2,6-dimethylphenoxy)phenyl)ethane sulfonamide]
BRD4-1
  IC50: > 10000 nM
BRD4-2
  IC50: 145 nM
[1]
  IC50: 0.55 µM

## CCNC(=O)c1cc2c(=O)n(C)cc(-c3cc(C(C)(C)O)ccc3Oc3ccc(F)cc3F)c2s1 [Compound 159, 7-(2-(2,4-difluorophenoxy)-5-(2-hydroxypropan-2-yl)phenyl)-N-ethyl-5-methyl-4-oxo-4,5-dihydrothieno[3,2-c]pyridine-2-carboxamide]
BRD4-1
  IC50: 18 nM
BRD4-2
  IC50: 1.7 nM

— patent US11584756B2, “Heterocyclic compounds as BET inhibitors” (NUVATION BIO INC., priority 2019, dated 2023)
